Data on seven compounds can be found in patent US6184374A, “Targeted cytotoxic anthracycline analogs” (priority 1998, dated 2001).

Where “and” joins values, the source holds several entries; their conditions need not be identical. Identical values can stand only once. Like-named read-outs stand apart in the source and are kept apart here.

Series [1] has as its system MCF-7 human mammary carcinoma cell line. The series is classed as cell-based. An excerpt:
(§1) MXT estrogen-independen mouse mammary carcinoma cell line was obtained from Dr. Gunter Berndhart, University of Regensburg, Germany. All the other cell lines used in the determination of the antiproliferative activity of the compounds of this invention were obtained from the American Type Culture Collection (ATCC).
(§2) For the evaluation of the activity of the analogs, a colorimetric cytotoxicity assay in microtitration plates was used based on quantification of biomass by staining cells with crystal violet, which correlates very well with determination of cell numbers. (Reile et al.; Anal. Biochem. 187, 262-267, 1990; Bernhardt G. et al, J. Cancer Res. Clin. Oncol. (1992), 118, 35-43; Spruss Th. et al, J. Cancer Res. Clin. Oncol 117, 435-443, 1991; Gillies, R. J., Anal. Biochem. 159, 109-113, 1986; Kueng, W. et al.; Anal. Biochem., 182 16-19, 1989.)
(§3) One to two days after seeding cells in 96-well plates the culture medium is exchanged with fresh medium containing the compounds to be tested and fresh medium only for the control cultures. After varying time of incubation, cells are fixed with glutaric dialdehyde and stored under […] at 4° C. until the end of the experiment. Cells are stained with crystal violet and bound stain is extracted with 70% aqueous EtOH. Optical density is measured with EIA Reader (Bio-Tek Instruments) or Biomek 1000 (Beckman) at 590 nm or 600 nm, respectively. Each data point represents the mean value of eight culture wells. T/C values are calculated as T/C=(T-C0)/(C-C0) where T=optical density of treated cultures, C=optical density of control (untreated) cultures, C0 =optical density of cultures at the start of incubation (t=0).
Cells were incubated in IMEM media containing 5% Hl:DCC-FBS (heat inactivated dextran coated charcoal treated fetal bovine serum) on 96 well plates. Relative cell number in treated and control plates was determined by the crystal violet staining method and was expressed as T/C values where T/C=T-C0 /C-C0×100 [T=absorbance of treated cultures, C= absorbance of control cultures, C0 =absorbance of cultures at the start of incubation (t=0). The measured absorbance is proportionate to the cell number.]

Series [2] deals with estrogen independent MXT mouse mammary cancers. As to the kind of experiment: Treatment of estrogen independent MXT mouse mammary cancers (KS-49). The series is classed as in vivo. An excerpt:
In order to compare the tumor inhibitory activity of cytotoxic doxorubicin derivative, Q6 and its targeted cytotoxic peptide conjugate, Q6^14 gL as well as the well known antineoplastic agent, DOX and to determine the optimal way of administration and the nontoxic doses, LH-RH receptor positive MXT (3.2) ovex tumor pieces (1 mm^3) were implanted s. c. in female B6 D2 F1 mice. One day after transplantation the mice were randomly divided into groups of five animals and the treatment started. The compounds were dissolved in 0.1% trifluoroacetic acid (pH 2) and given intraperitoneally.

Series [3] concerns MXT estrogen independent mouse mammary carcinoma cell line. As to the kind of experiment: In vitro cytotoxic activity, crystal violet colorimetric assay on MXT. The series is classed as cell-based.
Text: as §1, §2, §3

Setting [4] is: Table 17-1; 3 × 10^-8 M; incubation 70 hr.
Setting [5] is: Table 17-1; 3 × 10^-8 M; incubation 120 hr.
Setting [6] is: Table 17-1; 3 × 10^-9 M; incubation 70 hr.
[7] abbreviates: Table 17-1; 3 × 10^-9 M; incubation 120 hr.
The mark [8] stands for this setting: Table 17-1; 10^-8 M; incubation 70 hr.
Where [9] appears, read: Table 17-1; 10^-8 M; incubation 120 hr.
[10] abbreviates: Table 17-1; 3 × 10^-10 M; incubation 70 hr.
Setting [11] is: Table 17-1; 3 × 10^-10 M; incubation 120 hr.
The mark [12] stands for this setting: Table 17-1; 10^-9 M; incubation 70 hr.
Setting [13] is: Table 17-1; 10^-9 M; incubation 120 hr.

Take `COc1cccc2c1C(=O)c1c(O)c3c(c(O)c1C2=O)C[C@@](O)(C(=O)CO)C[C@@H]3O[C@H]1C[C@H](N2CCCCC2)[C@H](O)[C@H](C)O1` [AN-183, Piperidino-DOX]: the “T/C Value” in series [1] (setting [4]) is 4; in series [1] (setting [5]), 0; in series [1] (setting [6]), 114; in series [1] (setting [7]) it was 109; in series [1] (setting [8]) it was 70; in series [1] (setting [9]), 67.
As to `COc1cccc2c1C(=O)c1c(O)c3c(c(O)c1C2=O)C[C@@](O)(C(=O)CO)C[C@@H]3O[C@H]1C[C@H](N2Cc3ccccc3C2)[C@H](O)[C@H](C)O1.O=C(O)C(F)(F)F` [Compound Q3, 3'-deamino-3'-(isoindoline-2"-yl)doxorubicin], the “T/C Value” in series [1] (Table 17-1, 10^-8 M; incubation 70 hr) is given as -11; in series [1] (Table 17-1, 10^-8 M; incubation 120 hr) it was -29; in series [1] (setting [4]), 86; in series [1] (setting [5]) it was 77; in series [1] (setting [8]), 118; in series [1] (setting [9]) it was 108.
As for `COc1cccc2c1C(=O)c1c(O)c3c(c(O)c1C2=O)C[C@@](O)(C(=O)CO)C[C@@H]3O[C@H]1C[C@H](N2CC=CC2)[C@H](O)[C@H](C)O1.O=C(O)C(F)(F)F` [Compound Q4, 3'-deamino-3'-(3"-pyrroline-1"-yl)doxorubicin], the “T/C Value” is -5 in series [1] (setting [5]); 106 in series [1] (setting [6]); 97 in series [1] (setting [7]); 72 in series [1] (setting [8]); 65 in series [1] (setting [9]).
On to `COc1cccc2c1C(=O)c1c(O)c3c(c(O)c1C2=O)C[C@@](O)(C(=O)CO)C[C@@H]3O[C@H]1C[C@H](N2CCC(=O)C2)[C@H](O)[C@H](C)O1.O=C(O)C(F)(F)F` [Compound Q5, 3'-deamino-3'-(3"-pyrrolidone-1"-yl) doxorubicin], for which the “T/C Value” in series [1] (setting [4]) is on record as -28; in series [1] (setting [5]), -10; in series [1] (setting [6]), 87; in series [1] (setting [7]), 67; in series [1] (setting [8]), 30; in series [1] (setting [9]) it was 25.
For `COc1cccc2c1C(=O)c1c(O)c3c(c(O)c1C2=O)C[C@@](O)(C(=O)CO)C[C@@H]3OC1CC(N2C=CCC2)C(O)C(C)O1` (some centres unmarked) [Compound Q6, 3'-deamino-3'-(2"-pyrroline-1"-yl)doxorubicin], the “T/C Value” in series [1] (setting [6]) is reported as -18; in series [1] (setting [7]), -9; in series [1] (setting [10]) it was 50; in series [1] (setting [11]) it was 26; in series [1] (setting [12]) it was -3; in series [1] (setting [13]), 2. Also, the “T/C Value on MCF-7 Cell Line” value was -18 in series [1] (Table 18-1; 3 × 10^-9 M; 70 hr); -9 in series [1] (Table 18-1; 3 × 10^-9 M; 120 hr); -3 in series [1] (Table 18-1; 10^-9 M; 70 hr); 2 in series [1] (Table 18-1; 10^-9 M; 120 hr); 50 in series [1] (Table 18-1; 10^-10 M (by column position); 70 hr); 26 in series [1] (Table 18-1; 10^-10 M (by column position); 120 hr). For the same compound, the Average survival in series [2] (0.2 nmol/inj. i.p., total 21 nmol (Groups 5 and 9)) is 13.0 days; in series [2] (0.5 nmol/inj. i.p., 5 inj./week, total 7.5 nmol (Groups 3 and 7)), 19.6 days; in series [2] (1.25 nmol/inj. i.p., 2 inj./week, day 1, 2, 7 and 8 (Groups 2 and 6)), 17.4 days and 17.5 days; in series [2] (0.25 * nmol/inj. i.p. (dose raised day 9 to 12), total 9.5 nmol (Groups 4 and 8)), 14.6 days. Further, the Toxicity entry in series [2] (1.25 nmol on day 1, 2, 7 and 8) is recorded as “strong toxicity”. In addition, the “Average final tumor volume” value in series [2] (Group 2, 1.25 nmol on day 1, 2, 7 and 8, at day 16) is on record as 1065 mm^3. Further, the “T/C value on MXT cell line” value in series [3] (3 × 1^-11 M (so in the source), 28 hr) is 90; in series [3] (3 × 1^-11 M (so in the source), 69 hr), 52; in series [3] (3 × 10^-10 M, 28 hr), 56; in series [3] (3 × 10^-10 M, 69 hr), -13; in series [3] (10^-10 M, 28 hr), 78; in series [3] (10^-10 M, 69 hr) it was 6.
Consider `COc1cccc2c1C(=O)c1c(O)c3c(c(O)c1C2=O)C[C@@](O)(C(=O)CO)C[C@@H]3O[C@H]1C[C@H](N2CCCC(=O)C2)[C@H](O)[C@H](C)O1.O=C(O)C(F)(F)F` [Compound Q7, 3'-deamino-3'-(3"-piperidone-1"-yl) doxorubicin], for which the “T/C Value” came to 59 in series [1] (setting [4]); 43 in series [1] (setting [5]); 96 in series [1] (setting [6]); 97 in series [1] (setting [7]); 80 in series [1] (setting [8]); 70 in series [1] (setting [9]).
Consider `COc1cccc2c1C(=O)c1c(O)c3c(c(O)c1C2=O)C[C@@](O)(C(=O)CO)C[C@@H]3O[C@H]1C[C@H](N2C=CCCC2)[C@H](O)[C@H](C)O1.O=C(O)C(F)(F)F` [Compound Q8, 3'-deamino-3'-(1",3"-tetrahydropyridine-1"-yl)doxorubicin], for which the “T/C Value” in series [1] (setting [6]) came out at 69; in series [1] (setting [7]), 62; in series [1] (setting [10]), 96; in series [1] (setting [11]) it was 99; in series [1] (setting [12]) it was 88; in series [1] (setting [13]), 93.
